These results are taken from the OligoGym collection.

After the bases stand the sugars from the 5' end (letter, count) and the backbone: PS all phosphorothioate, else s phosphorothioate and o phosphodiester by linkage. Methylation of C is not given here. l = locked nucleic acid (LNA); d = 2'-deoxy (DNA)

This series has as its target SNHG14. The following applies: ASO, Human Neuronal Cell.

Under “7.5 µM”, “ACTGTTTATACCCTTTC (sugars l1 d11 l1 d2 l2, PS)” displayed a target mRNA inhibition of 56%.

On to “ACTGTTTATACCCTTTC (sugars lddldddddddldddll, PS)”, for which the target mRNA inhibition (7.5 µM) turned out to be 53%. Same read-out and setting: the result for “ACTGTTTATACCCTTTCC (sugars l1 d2 l1 d12 l2, PS)” reads 46%. On to “ACTGTTTATACCCTTTCC (sugars l2 d14 l2, PS)”, for which the target mRNA inhibition was 36% (0.2 µM) and 50% (1 µM). Under “7.5 µM”, “ACTGTTTATACCCTTTCC (sugars lddlddddddddddldll, PS)” gave a target mRNA inhibition of 62%.

For ACTTAATTATACTTCC (sugars l4 d10 l2, PS), the target mRNA inhibition was 62% (0.2 µM) and 64% (1 µM). “ACTTCACACCTATTATAT (sugars l3 d12 l3, PS)” yielded a target mRNA inhibition (0.2 µM) of 21% and a target mRNA inhibition (1 µM) of 45%.

As for “AGATCATTCTCAACAATT (sugars l3 d1 l1 d9 l4, PS)”, the target mRNA inhibition (7.5 µM) was 43%.

Under “7.5 µM”, “AGATCATTCTCAACAATT (sugars ldldlldddddddlllll, PS)” came in with a target mRNA inhibition of 32%. Still for that read-out and setting: the result for “AGATCATTCTCAACAATTA (sugars ldddlddddddddlldlll, PS)” reads 63%. The same measure, in the same setting: under “AGATCATTCTCAACAATTA (sugars ldlddldddddddddllll, PS)” stands 50%; under “AGCAACATTATTAACCAC (sugars l1 d3 l1 d7 l6, PS)”, 41%. Same read-out and setting: under “AGCAACATTATTAACCAC (sugars l3 d9 l3 d1 l2, PS)” stands 27%; under “AGCAACATTATTAACCAC (sugars l5 d7 l1 d3 l2, PS)”, 47%; under “AGCAACATTATTAACCAC (sugars lddlddddddddldllll, PS)”, 47%. “AGCAACATTATTAACCACC (sugars ldddddddddddldlddll, PS)” gave a target mRNA inhibition (7.5 µM) of 26%.

“AGCAACATTATTAACCACC (sugars lddldddddddddlldlll, PS)” showed a target mRNA inhibition (7.5 µM) of 50%. Turning to AGCATCATATAAACCT (sugars l3 d10 l3, PS), the target mRNA inhibition (0.2 µM) stood at 34% and the target mRNA inhibition (1 µM) came to 26%. In the case of AGCATTCAACCCTAAT (sugars l4 d10 l2, PS), the target mRNA inhibition was found to be 52% (0.2 µM) and 60% (1 µM). The corresponding values for AGCTCTAAACCTTCAA (sugars l3 d10 l3, PS) are 40% and 12%. The corresponding values for AGCTTACCAAATATTC (sugars l4 d10 l2, PS) are 17% and 23%. “AGCTTTTAACCAGAGTG (sugars l2 d11 l4, PS)” showed a target mRNA inhibition (7.5 µM) of 78%. Regarding “AGTCCTTCCTTTAACCA (sugars l2 d13 l2, PS)”, the target mRNA inhibition is 21% (0.2 µM) and 41% (1 µM).

“AGTTCTACTATACTTTC (sugars l3 d1 l1 d10 l2, PS)” gave a target mRNA inhibition (7.5 µM) of 64%. In turn, “AGTTCTACTATACTTTC (sugars l3 d10 l1 d1 l2, PS)” showed a target mRNA inhibition (7.5 µM) of 59%. As to “AGTTCTACTATACTTTC (sugars l4 d11 l2, PS)”, the target mRNA inhibition reads like this: (0.2 µM) 50%; (1 µM) 57%.

For the setting “7.5 µM”, “AGTTCTACTATACTTTC (sugars ldlldddddddldllll, PS)” gave a target mRNA inhibition of 30%. In turn, “AGTTCTACTATACTTTCC (sugars l1 d1 l1 d13 l2, PS)” showed a target mRNA inhibition (7.5 µM) of 40%. “AGTTCTACTATACTTTCC (sugars l1 d12 l1 d2 l2, PS)” came in with a target mRNA inhibition (7.5 µM) of 52%.

As to “AGTTCTACTATACTTTCC (sugars l2 d14 l2, PS)”, the target mRNA inhibition (7.5 µM) came out at 14%. For the sequence “AGTTCTACTATACTTTCC (sugars lddddldddddddlddll, PS)”, for the setting “7.5 µM”, the target mRNA inhibition stood at 60%. The same measure, in the same setting: under “ATATTGATTCAATTCCC (sugars l2 d1 l1 d10 l3, PS)” stands 65%.
